# Results reported in US10493169B2, “Use of charge-balanced imaging agents for determining renal function” (Beth Israel Deaconess Medical Center, priority 2009, dated 2019).
# Read-outs that look alike come from different tables or passages of the source.
# Experiments:
# [1] = Optical properties of NIR fluorophores in 100% calf serum; format: physicochemical; conditions: 100% calf serum supplemented with 50 mM HEPES, pH 7.4
# From the text: After purification to homogeneity, optical properties of the dyes can be measured in 100% calf serum. Absorbance spectrometry (200 to 870 nm) can be performed using a USB2000 fiber optic spectrometer and CHEM2000-UV-VIS light source with cuvette holder (Ocean Optics, Dunedin, Fla.). Fluorescence spectrometry (200 to 1100 nm) can be performed using a HR2000 fiber optic spectrometer, CUV-ALL-UV 4-way cuvette holder (Ocean Optics), and a 250 mW 770 nm laser diode (Electro Optical Components, Santa Rosa, Calif.). Quantum yield can be measured under conditions of matched absorbance and 770 nm laser excitation, using ICG in DMSO (QY=13%) as the calibration standard.
# (§1) Table 2 below summarizes the optical and stability properties of each of these dyes in 100% calf serum (supplemented with 50 mM HEPES, pH 7.4).
# [2] = Stability of dyes in 100% calf serum at 37° C.; format: in vitro ADME; conditions: 100% calf serum supplemented with 50 mM HEPES, pH 7.4
# Procedure: as §1
# [3] = In vivo biodistribution and clearance of dyes in rats (FLARE NIR fluorescence imaging); conditions: IV 40 pmol/g (10 nmol)
# Procedure: The dyes were injected IV into rats at a dose of 40 pmol/g (10 nmol). […] Excitation fluence rate was 5 mW/cm2. Camera integration time was 200 msec. All NIR fluorescence images have identical normalizations. B 1=bladder. Li=Liver. In=Intestines.
# [4] = In vivo biodistribution and clearance of dyes in pigs (FLARE NIR fluorescence imaging); conditions: for Blood half-lives: IV 40 pmol/g, given in the pig paragraph, species not restated; for uptake in liver and intestines: pigs, IV 40 pmol/g (1.6 μmol)
# Procedure: (§2) For in vivo characterization, 40 pmol/g (average 10 nmol) of each dye or conjugate can be injected IV into 250 g Sprague-Dawley rats whose major viscera are surgically exposed. The FLARE™ imaging system can be set to a 760 nm excitation fluence rate of 5 mW/cm2. Simultaneous color video and NIR fluorescence (800 nm) images can be acquired pre-injection, every 1 sec for the first 20 sec then every 1 min for 2 h. Camera acquisition can be held constant (typically 100 msec) and chosen to ensure that all intensity measurements are within the linear range of the 12-bit Orca-AG (Hamamatsu) NIR camera. Blood can be sampled at 0, 1, 2, 5, 10, 15, 30, 60, and 120 min via tail vein. Intensity-time curves for all major organs and tissues can be quantified. The peak fluorescence intensity and time can be determined for each tissue/organ, along with the intensity in each at 1 h post-injection. The experiment can then be repeated in pigs, with measurement of NIR fluorescent intensity of skin and all internal tissues and organs.
# (§3) All dyes were injected IV into pigs at a dose of 40 pmol/g (1.6 μmol). […] Excitation fluence rate was 5 mW/cm2. Camera integration time was 200 msec. All NIR fluorescence images had identical normalizations.
# [5] = in DMSO; cited from earlier work
# [6] = Renal clearance: recovery of dye in urine samples; format: in vivo; conditions: human, healthy individuals, urine over 12 h, read-out: recovery of the pre-determined dose in urine
# Procedure: Dye MM-19 with net charge of 0 was administered to three groups of subjects of healthy individuals. One group was administered a pre-determined dose of 0.5 mg; one group was administered a pre-determined dose of 2.5 mg; and one group was administered a pre-determined dose of 5.0 mg. Clearance of the dye was measured by quantitative analysis of urine samples obtained by catheterization every hour for the first four hours followed by samples obtained every two hours for the next 8 hours.
# in vivo = conditions: pig, iv
# Procedure: as §2, §3
Structure (SMILES),Extinction Coefficient [1],Peak Absorbance [1] [nm],Peak Emission [1] [nm],QY [1] [%],"Stability at 4 h, 37° C. [2] [%]",clearance / excretion route [3],intestinal signal [3],non-specific uptake / background retention in tissues and organs [3],Blood half-lives [4] [min],uptake in liver and intestines [4],liver uptake [3],QY (calibration standard) [5] [%],equilibration between intravascular and extravascular spaces [3],"dose excreted ([6]; dose not named in the sentence (groups 0.5, 2.5, 5.0 mg)) [%]",dose excreted ([6]; predetermined dose of 0.5 mg) [%],dose excreted ([6]; predetermined dose of 2.5 mg) [%],half-life (in vivo) [min]
CC1(C)C(/C=C/C2=C(Oc3ccc(S(=O)(=O)O)cc3)C(=C/C=C3/N(CCCCS(=O)(=O)O)c4ccc(S(=O)(=O)[O-])cc4C3(C)C)/CCC2)=[N+](CCCCCC(=O)O)c2ccc(S(=O)(=O)O)cc21 [CW-800],"237,000 M^−1cm^−1",786,801,14.2,95,cleared equally by liver and kidneys,high intestinal signal,relatively high retention in skin and other major tissues and organs,30.6,very high uptake in pig liver and intestines,–,–,–,–,–,–,–
CC1(C)C(/C=C/C=C/C=C/C=C2\N(CCCCS(=O)(=O)[O-])c3ccc4ccccc4c3C2(C)C)=[N+](CCCCS(=O)(=O)[O-])c2ccc3ccccc3c21.[Na+] [ICG],"121,000 M^−1cm^−1",807,822,9.3,96,eventual excretion into bile,–,–,4.6,very high uptake in pig liver and intestines,rapid uptake by the liver,13,–,–,–,–,–
CC1(C)C(/C=C/C2=C(Oc3ccc(CCC(=O)[O-])cc3)C(=C/C=C3/N(CCC[N+](C)(C)C)c4ccc(S(=O)(=O)[O-])cc4C3(C)C)/CCC2)=[N+](CCC[N+](C)(C)C)c2ccc(S(=O)(=O)[O-])cc21 [MM-19],"249,000 M^−1cm^−1",773,790,13.7,95,rapid renal excretion into urine,–,extremely low background retention in normal tissues and organs,–,–,no measurable liver uptake,–,rapid equilibration between intravascular and extravascular spaces,> 50,> 80,> 60,13.4
